Like-named read-outs stand apart in the source and are kept apart here.
Legend:
[1] = pure solvent; cited from earlier work
[2] = Test 2 - Moisture retention (Karl Fischer titration); assay type: physicochemical
Protocol: Each solvent (5 g) was put into a small vial and the individual samples were titrated with a Karl Fischer titration machine to evaluate how much moisture was contained in each. De-ionized water (1 g) was then added to each vial, which ensured that each sample was saturated with moisture. The samples were then agitated and allowed to phase separate. Karl Fischer analysis of the organic layer of each solvent was performed after phase separation was complete.
The difference between the saturated moisture percent and the starting sample moisture percent is the amount that was absorbed by the solvent.

[3] = Test 3 - Acid retention (titration before and after concentrated HCl); assay type: physicochemical
Protocol: In order to measure the ability of each solvent to absorb acid, a titration of each solvent before and after concentrated HCl addition was performed. The difference between how much titrant was needed to neutralize the solvent after the addition of acid and the amount of titrant needed to neutralize the initial solvent was a simple way to determine how much acid was absorbed by each solvent. Mixture A advantageously absorbed more mineral acid than any of the three comparative solvents.

[4] = Test 4 - Oil retention (oil saturation point); assay type: physicochemical; conditions: oil added to 4.5 g solvent until phase separation
Protocol: An oil absorption test was performed on Mixtures A, B, C, D and the three comparative solvents to see if there was a saturation point associated with any of the solvents. A 4.5 g sample of each solvent was put into a vial and oil was added to each until a phase separation or other noticeable fluid property change took place. […]. Rx-11 and oil phase separated after 0.45 g, or 10 mass % of oil were added.

[5] = cited from earlier work; for BP: Table 1
[6] = Description: Parameters such as the lethal dose 50 (LD50), lethal concentration 50 (LC50), cardiac sensitization, skin irritation, and mutagenicity (e.g., via the Ames test) can be used as toxicity metrics. The LDn or LCn abbreviations, where n is the percent lethality, are used for the dose of a toxicant lethal to n % of a test population. […] Cardiac sensitization is a measure of the ability of a compound to cause cardiac arrhythmia under stress.
The property modification components are chosen from a list of potential replacement solvents. These compounds included halogenated compounds such as halogenated acetates, alcohols, alkanes, cycloalkanes, alkenes, cycloalkenes, amines, anhydrides, aromatics, carbonyls, diones, esters, ethers, heterocyclics and ketones.

[7] = solubility parameter, Table 1; cited from earlier work
[8] = cardiac sensitization relative to CFC-113

SMILES	flash point [1]	CS/CS113 [6, 8]	SP [7]	BP [5] [C.]	also measured
CC(C)CBr [1-bromo-2-methylpropane]	11 °C				
FC(Cl)(Cl)Cl [CFC-11, trichlorofluoromethane]					Saturated % ([2]; moisture in organic layer after 1 g water added to 5 g solvent): 0.007%; Starting % ([2]; moisture in solvent before water addition): 0.000%; Acid Number after acid ([3]; after concentrated HCl addition): 18 mg/L; Acid Number before acid ([3]; before concentrated HCl addition): 9 mg/L; Acid Absorbed ([3]; difference after minus before acid): 9 mg/L; saturation point for oil [4]: no saturation point; boiling point [5]: 47.6 °C
CCO [Ethanol, ethanol]	55 ° F.				
C=C(C)[C@H]1CC=C(C)CC1 [d-limonene]	around 120 ° F.				
COCC(C)OCC(C)OC (stereo not drawn) [dipropyleneglycol dimethylether]	149 ° F.				
FC(OC(F)(F)C(F)(F)C(F)(F)F)C(F)(F)F (stereo not drawn) [heptafluoropropyl 1,2,2,2-tetrafluoroethyl ether]		195.7	6.62 (cal/cm^3)^1/2	41.0	
CC(C)O [isopropyl alcohol]	54 ° F.				
COC(C(F)(F)F)C(F)(F)F [methyl 2,2,2-trifluroethyl-1-(trifluoromethyl)ether]		107.3	7.26 (cal/cm^3)^1/2	50.8	
CC(=O)C(F)(F)C(F)(F)C(F)(F)F [methyl heptafluoropropyl ketone]		25.4	7.32 (cal/cm^3)^1/2	63.5	
COC(=O)C(F)(F)C(F)(F)F [methyl pentafluoropropanoate]		27.0	7.77 (cal/cm^3)^1/2	59.5	
COC(F)(F)C(F)(F)C(F)(F)C(F)(F)F [methyl perfluorobutyl ether]		53.5	6.75 (cal/cm^3)^1/2	51.0	
FC(F)(F)C(F)(F)C(F)(F)C(F)(F)C1(F)OC(F)(F)C(F)(F)C1(F)F (stereo not drawn) [perfluoro-2-butyltetrahydrofuran]		65.4	6.94 (cal/cm^3)^1/2	103.0	
FC(F)(F)C(F)(F)C(F)(F)C(F)(F)OC(F)(F)C(F)(F)C(F)(F)C(F)(F)F [perfluorodibutyl ether]		896.2	6.65 (cal/cm^3)^1/2	110.1	
Fc1c(F)c(F)c(C(F)(F)F)c(F)c1F [perfluorotoluene]		64.0	7.70 (cal/cm^3)^1/2	104.0	
O=C(OC(=O)C(F)(F)F)C(F)(F)F [trifluoroacetic anhydride]			7.29 (cal/cm^3)^1/2	40.2	CS/CS113 [6]: 236.9

From US7736537B1, “Replacement solvents having improved properties for refrigeration flushes” (Mainstream Engineering Corp., priority 2008, dated 2010)
